From article PMC11040670, “Mechanistic and Kinetic Insights into Cellular Uptake of Biomimetic Dinitrosyl Iron Complexes and Intracellular Delivery of NO for Activation of Cytoprotective HO-1” (JACS Au, 2024)

Tests used:
MSC = test: Cytoprotection of MSC against H2O2 oxidative stress (CCK-8, live/dead); type: cell-based, human; details: MSC pretreated 8 h (100 μM DNIC–COOH or 2.5 μM DNIC–COOMe), then 250 μM H2O2 24 h
Experimental: Cell viability study of MSC, N2a, and HCEC cells with or without the treatment of DNIC–COOH was performed using a Cell Counting Kit-8 (IMT Formosa New Materials Co., Ltd., Taiwan) according to the manufacturer’s protocol. Briefly, cells were seeded into a 96-well plate at a density of 4 × 10^3 cells/well for MSC, 1 × 10^4 cells/well for N2a, and 8 × 10^3 cells/well for HCEC, respectively, and incubated overnight. On the next day, cells were treated with DNIC–COOH at different concentrations and incubated for 24 h. The culture medium was then removed before the cells were washed with DPBS. After addition of fresh medium containing CCK-8 solution to the cells and incubation for 1–3 h, the absorbance at 450 nm was then measured on a microplate reader (SpectraMax iD3, Molecular Devices, San Jose, CA) with a reference wavelength of 650 nm. […]
To investigate the capacity of DNIC preconditioning to protect the MSC cells against elevated oxidative stress, cells were pretreated with 2.5 μM of DNIC–COOMe or 100 μM of DNIC–COOH for 8 h before being incubated with 250 μM H2O2 for another 24 h. Cell viability was evaluated by live/dead staining or CCK-8 assay. In a similar manner, DNIC-induced cytoprotective effect in HCECs was evaluated through pretreatment of 1 μM of DNIC–COOMe or 75 μM of DNIC–COOH for 24 h.

N2a = test: Whole-cell EPR: cellular uptake and intracellular formation/decomposition of mononuclear DNIC in N2a; type: cell-based, mouse; details: for tmax for cellular uptake and intracellular transformation (whole-cell EPR): normoxia, 100 μM DNIC–COOH or 10 μM DNIC–COOMe
Experimental: Cellular uptake of DNIC–COOH and intracellular formation/decomposition of mononuclear DNICs in MSC/N2a/HCEC cells were investigated using EPR spectroscopy. Briefly, cells were seeded into two (or one) 100 mm dish(es) at a density of 2 × 10^6 cells/dish and incubated at 37 °C overnight. On the next day, cells were treated with 100 μM of DNIC–COOH (or 100 μM of DNIC–COOH to N2a and 75 μM of DNIC–COOH to HCEC) and incubated for 0, 0.5, 1, 2, 3, 4, 8, and 24 h, respectively. After removal of the supernatant solution, cells were washed with DPBS before addition of 1 mL of trypsin (0.05%)/EDTA (0.53 mM) and incubation for 5 min at 37 °C. After the obtained cell suspension solutions from two 100 mm dishes were combined and centrifuged at 100g for 5 min, the supernatant was removed before addition of 100 μL of αMEM to DNIC-treated MSC (or MEM to DNIC-treated N2a and HSFM to DNIC-treated HCEC). This solution was then transferred into EPR quartz tube and frozen in N2(l) before the EPR measurements. For each measured EPR spectrum, double integration was executed to obtain the integrated EPR intensity under each condition. Moreover, time-dependent decay of integrated EPR signal intensity after treatment of DNIC–COOH was fit to pseudo-first-order kinetics in order to determine the intracellular half-life for EPR-active mononuclear DNIC. Three independent experiments were executed to measure the average half-life for intracellular decomposition of EPR-active mononuclear DNIC after treatment with DNIC–COOH at 37 °C. On the other hand, at the time point with maximum integrated EPR signal intensity, spin quantitation of intracellular EPR-active DNICs was performed using mononuclear DNIC [PPN][(NO)2Fe(S5)] as a standard according to the methodology used in the previous work.[50] Cellular uptake of DNIC–COOMe (2.5 μM to MSC, 10 μM to N2a, or 1 μM to HCEC) and intracellular formation/decomposition of EPR-active mononuclear DNICs were investigated using EPR spectroscopy in a similar manner.
Studies of cellular uptake mechanisms were investigated using EPR spectroscopy in combination with pretreatments of alternative inhibitors. After the MSC cells were seeded into two (or one) 100 mm dish(es) at a density of 2 × 10^6 cells/dish and incubated at 37 °C overnight, sequential treatments of 50 μM of NEM for 0.5 h and 100 μM of DNIC–COOH for 2 h were performed before the treated MSC cells were collected for EPR measurement following the procedure described above. […]

MSC/N2a/HCEC = test: Cell viability (CCK-8) of MSC/N2a/HCEC treated with DNICs; type: cell-based; details: 24 h; for effect on cell viability: N2a/HCEC
Experimental: Cell viability study of MSC, N2a, and HCEC cells with or without the treatment of DNIC–COOH was performed using a Cell Counting Kit-8 (IMT Formosa New Materials Co., Ltd., Taiwan) according to the manufacturer’s protocol. Briefly, cells were seeded into a 96-well plate at a density of 4 × 10^3 cells/well for MSC, 1 × 10^4 cells/well for N2a, and 8 × 10^3 cells/well for HCEC, respectively, and incubated overnight. On the next day, cells were treated with DNIC–COOH at different concentrations and incubated for 24 h. The culture medium was then removed before the cells were washed with DPBS. After addition of fresh medium containing CCK-8 solution to the cells and incubation for 1–3 h, the absorbance at 450 nm was then measured on a microplate reader (SpectraMax iD3, Molecular Devices, San Jose, CA) with a reference wavelength of 650 nm. Three independent experiments were executed, and the results were represented as mean ± SEM% (n = 3) with the untreated cells (control) as 100% viability. Cell viability studies of MSC/N2a/HCEC cells (1) with the treatment of DNIC–COOMe for 24 h, (2) with the treatment of NEM for 0.5 h, (3) with the treatment of chlorpromazine (CPZ; TCI) for 0.5 h, (4) with the treatment of methyl-β-cyclodextrin (MβCD; Thermo Fisher Scientific) for 0.5 h, (5) with the treatment of genistein (Alfa Chemistry) for 0.5 h, (6) with the sequential treatments of ODQ for 1 h and DNIC–COOH for 3 h (MSC)/10 h (N2a)/6 h (HCEC), and (7) with the cotreatment of PTIO and DNIC–COOH for 3 h (MSC)/10 h (N2a)/6 h (HCEC), respectively, were performed in a similar manner. In addition to CCK-8 assay, a live/dead staining was performed using a ViaQuant Viability/Cytotoxicity Kit (GeneCopoeia, Rockville, MD) according to the manufacturer’s instruction.

SMILES	survival rate (MSC)	relative whole-cell EPR signal intensity at gav = 2.03 (control = 100%) (N2a; CPZ-treated N2a)	relative whole-cell EPR signal intensity at gav = 2.03 (control = 100%) (N2a; MβCD-treated N2a)	tmax for cellular uptake and intracellular transformation (whole-cell EPR) (N2a; N2a)	biocompatibility in comparison with DNIC–COOMe (MSC/N2a/HCEC; MSC/N2a/HCEC)	effect on cell viability (MSC/N2a/HCEC)	relative whole-cell EPR signal intensity at gav = 2.03 (control = 100%) (N2a; N2a, native FBS replaced with 5% NEM-treated FBS)	relative whole-cell EPR signal intensity at gav = 2.03 (control = 100%) (N2a; N2a, pretreatment of NEM 0.5 h, then DNIC–COOMe 0.5 h, reduction)
O=[N][Fe]1([N]=O)[SH](CCC(=O)O)[Fe]([N]=O)([N]=O)[SH]1CCC(=O)O (centres unmarked) [DNIC–COOH, [(NO)2Fe(μ-SCH2CH2COOH)2Fe(NO)2]]	58.7%	77.6 ± 22.5%	81.7 ± 18.2%	2 h	improved biocompatibility	dose-dependent cell-proliferation effect	–	–
COC(=O)CC[SH]1[Fe]([N]=O)([N]=O)[SH](CCC(=O)OC)[Fe]1([N]=O)[N]=O (centres unmarked) [DNIC–COOMe, [(NO)2Fe(μ-SCH2CH2COOCH3)2Fe(NO)2]]	35.8%	–	–	0.5 h	–	dose-dependent cell-proliferation effect	116.2 ± 33.6%	20.1 ± 9.7%
